Experiments:
Format in all cases: cell-based
[1] = target: T1, asc-1 of mouse (co-expressed with 4F2hc of mouse) (Mus musculus, UniProt P63115); test: Incorporation of radiolabeled amino acids and analogs by oocytes co-expressing asc-1 and 4F2hc; conditions: for incorporation into the oocytes as substrate: radiolabeled substrate, oocytes expressing both asc-1 and 4F2hc, Na+-free uptake solution; for transport by asc-1 (affinity in words): summary statement, asc-1 co-existing with 4F2hc
T1 construct: expressed in transfected cells; host or cells: Xenopus oocytes injected with cRNA
T1 sequence (P63115 1-530): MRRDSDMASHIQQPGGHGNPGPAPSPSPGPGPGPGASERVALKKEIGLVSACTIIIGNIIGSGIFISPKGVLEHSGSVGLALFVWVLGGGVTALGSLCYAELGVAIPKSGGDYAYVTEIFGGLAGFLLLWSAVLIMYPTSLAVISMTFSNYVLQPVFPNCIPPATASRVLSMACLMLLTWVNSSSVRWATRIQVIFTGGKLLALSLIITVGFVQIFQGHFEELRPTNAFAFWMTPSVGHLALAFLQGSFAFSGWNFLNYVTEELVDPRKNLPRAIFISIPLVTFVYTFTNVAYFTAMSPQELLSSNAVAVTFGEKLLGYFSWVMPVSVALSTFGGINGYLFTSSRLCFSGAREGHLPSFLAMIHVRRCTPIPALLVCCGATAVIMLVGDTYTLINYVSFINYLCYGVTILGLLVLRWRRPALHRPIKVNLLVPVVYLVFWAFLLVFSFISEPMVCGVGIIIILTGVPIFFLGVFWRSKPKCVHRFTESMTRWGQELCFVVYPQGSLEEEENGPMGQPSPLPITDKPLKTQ
T1 sequence (P10852 1-526 partner): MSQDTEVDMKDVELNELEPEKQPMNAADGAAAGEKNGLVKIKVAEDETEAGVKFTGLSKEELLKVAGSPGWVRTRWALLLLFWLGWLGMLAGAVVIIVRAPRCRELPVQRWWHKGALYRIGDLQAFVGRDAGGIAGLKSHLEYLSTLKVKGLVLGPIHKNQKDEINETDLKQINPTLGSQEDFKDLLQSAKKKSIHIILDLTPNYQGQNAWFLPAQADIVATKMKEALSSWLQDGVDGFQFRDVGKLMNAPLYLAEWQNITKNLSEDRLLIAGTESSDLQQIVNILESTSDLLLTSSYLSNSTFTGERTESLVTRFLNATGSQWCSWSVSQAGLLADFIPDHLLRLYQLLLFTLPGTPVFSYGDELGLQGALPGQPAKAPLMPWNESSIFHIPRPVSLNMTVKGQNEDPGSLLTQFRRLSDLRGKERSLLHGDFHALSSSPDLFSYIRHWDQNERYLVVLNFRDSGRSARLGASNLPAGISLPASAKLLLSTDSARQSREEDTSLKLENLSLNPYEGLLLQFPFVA
Description: Incorporation of alanine when asc-1 gene cRNA of mouse was solely expressed in oocytes of Xenopus and when asc-1 gene cRNA of mouse and 4F2hc gene cRNA of mouse were expressed in oocytes of Xenopus together was compared.
(§1) Into oocytes were injected 12 ng of asc-1 gene cRNA of mouse, 13 ng of 4F2hc gene cRNA of mouse or 12 ng asc-1 gene cRNA of mouse/13 ng of 4F2hc gene cRNA of mouse to express followed by incubating for 3 days. […] Thus, the oocytes were allowed to stand for 30 minutes in a Na^+-free uptake solution [100 mM choline chloride, 2 mM potassium chloride, 1.8 mM calcium chloride, 1 mM magnesium chloride, 5 mM HEPES; pH 7.4] containing ^14C-alanine (100 μM) as a substrate and the rate of the substrate incorporated into the cells was measured by way of counting the radioactivity incorporated thereinto.
In an experiment of incorporation of alanine by oocytes into which both asc-1 gene cRNA and 4F2hc gene cRNA of mouse were injected together, influence of the salt added to the medium was investigated.
The experiment of incorporation of alanine was carried out in accordance with the method mentioned in the above Example 2(1) using oocytes into which both asc-1 gene cRNA and 4F2hc gene cRNA of mouse were injected together. When the influence of sodium ion was checked however, a standard uptake solution (where 100 mM choline chloride was substituted with 100 mM sodium chloride) was used in place of the Na^+-free uptake solution as the uptake solution. When the influence of chlorine ion was checked, a gluconic acid uptake solution (where 100 mM sodium chloride was substituted with 100 mM sodium gluconate) was used in place of the standard uptake solution.
Incorporation by asc-1 was investigated using various amino acids and analogs thereof as substrates. Experiment for incorporation of various amino acids and analogs thereof was carried out according to the method mentioned in the above Example 2(1) using oocytes into which asc-1 gene cRNA of mouse and 4F2hc gene cRNA of mouse were injected together. With regard to the substrates however, various compounds labeled with radioactivity were used in place of ^14C-alanine.
Influence of pH was checked in an experiment for incorporation of alanine by oocytes into which both asc-1 gene cRNA and 4F2hc gene cRNA of mouse were injected together. With regard to an experiment for incorporation of alanine, the method according to that mentioned in the above Example 2 (1) was carried out using oocytes into which both asc-1 gene cRNA of mouse and 4F2hc gene cRNA of mouse were injected together.

[2] = target: T1, asc-1 of mouse (co-expressed with 4F2hc of mouse); test: Inhibition of 14C-alanine incorporation by added amino acids and analogs in oocytes co-expressing asc-1 and 4F2hc; conditions: 14C-alanine 50 μM; 5 mM non-labeled compound; Na+-free uptake solution
Description: as §1
In an experiment of incorporation of alanine by oocytes into which both asc-1 gene cRNA of mouse and 4F2hc gene cRNA of mouse were injected, influence of addition of various amino acid and analogs thereof was investigated.
In an experiment of incorporation of alanine, a method according to that mentioned in the above Example 2(1) was carried out using oocytes into which both asc-1 gene cRNA of mouse and 4F2hc gene cRNA of mouse were injected. Here, a Na^+-free uptake solution was used and incorporation of ^14C-alanine (50 μM) was measured in the presence and absence of 5 mM of various compounds (non-labeled).

[3] = target: T1, asc-1 of mouse (co-expressed with 4F2hc of mouse); test: Michaelis-Menten kinetic test of substrate incorporation by Xenopus oocytes co-expressing asc-1 and 4F2hc; conditions: ratio to the Vmax value for alanine (defined as 1.00)
Description: as §1
A Michaelis-Menten kinetic test was carried out for a sodium-independent small neutral amino acid transporter asc-1 which transports L- and D-amino acids. By checking the changes in the rate of incorporation of alanine due to the difference in concentration of the alanine substrate, the Michaelis-Menten kinetic test of asc-1 was carried out.
An experiment for the incorporation of alanine was carried out according to the method mentioned in the above Example 2(1) using the oocytes into which both asc-1 gene cRNA of mouse and 4F2hc gene cRNA of mouse were injected.
With regard to amino acids other than alanine which were used as substrates, a Michaelis-Menten kinetic was carried out as well in the same manner whereupon Km values and Vmax values were calculated. Each Vmax value in Table 1 was shown in terms of the ratio when the Vmax value of alanine was defined as 1.00.

SMILES	influence of pH on incorporation of alanine [1]	influence of salt on incorporation of alanine ([1]; choline changed to sodium, chlorine ion changed to gluconic acid ion)	incorporation into the oocytes as substrate [1]	transport by asc-1 (affinity in words) [1]	inhibition of incorporation of 14C-alanine mediated by asc-1 [2]	Vmax [3]
C[C@H](N)C(=O)O [L-Alanine]	no significant dependency on pH	does no affect	big incorporation	highly affinitive	particularly strongly inhibited	(1.00)
N[C@@H](CO)C(=O)O [L-Serine]			big incorporation	highly affinitive	particularly strongly inhibited	1.02

Reference: US20070122422A1, “Sodium-independent small neutral amino acid transporter transporting L- and D- amino acids” (Japan Science and Technology Corporation, priority 2000, published 2007)
